This series in a line: Serum concentration over time after transdermal application of the drug patch on microporated skin (FIG. 10a, 10b). It counts as in vivo. Particulars: over a short period of about two hours. The text has this: The drug is entering the permeation surface by passive diffusion. The amount of drug entering the permeation surface is mainly determined by the permeation surface A(t) over time, as long as the patch 5 provides a sufficient amount of drug. Preferably the patch 5 is able to provide much larger quantities of drug than the permeation surface A(t) is able to absorb. Preferably the patch 5 is able to provide a sufficient concentration level of the permeant at the permeation surface over a period of time during with the permeant is applied. Therefore, the serum concentration as a function of time can be determined by an appropriate poration of the skin 1 with an initial microporation.
FIG. 10a to 10b show the administration of the same drug, for example 100 mg acetylsalicylic acid, the drug being arranged on the skin 1 as disclosed in FIG. 3c. Depending on the permeation surface A(t) as a function of time, the level of the serum concentration as well as the time period within which the drug is released, can be predescribed. In FIG. 10a the permeation surface A(t), not shown in detail, is chosen such that the maximal serum concentration is about 25 g/l over a short period of time of about two hours. […]

Data on 1 compound can be found in patent US20090306576A1, “System for Transmembrane Administration of a Permeant and Method for Administering a Permeant” (Pantec Biosolutions AG, priority 2005, published 2009).

Molecules are shown by their SMILES.

Regarding `CC(=O)Oc1ccccc1C(=O)O` [acetylsalicylic acid], the maximal serum concentration result (FIG. 10a, 100 mg acetylsalicylic acid on porated skin (transdermal application TD)) was “about 25 g/l” and the maximal serum concentration result (FIG. 10b, fast application (turbo), 100 mg acetylsalicylic acid on porated skin) is “about 30 g/l”.
